Test results as given in patent US20030096379A1, “Method for producing tryptamine derivatives” (priority 2001, published 2003).

T1: synAAAD (synthetic gene based on pkAAAD protein sequence) (Sus scrofa, UniProt P80041)
T1 construct: made in house; host or cells: E. coli (pET-15 vector)
T1 sequence (P80041 1-486): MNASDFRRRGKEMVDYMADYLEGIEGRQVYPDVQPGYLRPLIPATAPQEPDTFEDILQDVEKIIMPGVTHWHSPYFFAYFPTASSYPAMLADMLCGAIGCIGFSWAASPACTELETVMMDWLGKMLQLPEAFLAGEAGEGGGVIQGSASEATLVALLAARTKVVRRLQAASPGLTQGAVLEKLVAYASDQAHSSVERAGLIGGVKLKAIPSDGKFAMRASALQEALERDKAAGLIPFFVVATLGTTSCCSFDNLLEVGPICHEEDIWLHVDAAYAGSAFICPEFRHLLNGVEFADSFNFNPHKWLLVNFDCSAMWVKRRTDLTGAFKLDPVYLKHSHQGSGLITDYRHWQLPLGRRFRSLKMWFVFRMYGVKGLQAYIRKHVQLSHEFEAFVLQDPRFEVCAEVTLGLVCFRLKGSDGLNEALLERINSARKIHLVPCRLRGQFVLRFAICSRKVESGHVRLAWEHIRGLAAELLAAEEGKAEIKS

T2: pig kidney aromatic amino acid decarboxylase (pkAAAD) (Sus scrofa, UniProt P80041)
T2 construct: Frozen tissue was partially thawed in lysis buffer, then it was extracted and partially purified; from tissue; host or cells: pig kidney
T2 sequence (P80041 1-486): T1 sequence (P80041 1-486)

B1: synAAAD: enzyme from synthetic gene optimized for E. coli expression, based on the pkAAAD protein sequence (protein, UniProt P80041 1-486, looked up)
Aromatic-L-amino-acid …: T1 sequence (P80041 1-486)
modifications: codon-optimized synthetic gene
B2: pkAAAD: aromatic amino acid decarboxylase extracted from pig kidney tissue, E.C. 4.1.1.28 (protein, UniProt P80041 1-486, looked up)
Aromatic-L-amino-acid …: T1 sequence (P80041 1-486)

How the values were obtained:
[1] = biological target: T1, synAAAD (synthetic gene based on pkAAAD protein sequence); test: Substrate screen for tryptophan decarboxylation, SynAAAD; assay type: biochemical; design: key: +: a clear ninhydrin-positive spot at the Rf of standard tryptophan derivatives after 16-65 h; (+): a weak spot in the product region; −: no product observed; NR: experiment not run; details: tryptophan derivative, PLP, pH 7.5, 37° C.
Protocol: A mixture containing 1 μmole of the tryptophan derivative, 0.05 μmole of PLP and 50 μmol of L-serine in 40 mM pH 7.5 KPi buffer was warmed to 37° C., then enzyme solution was added to give a final volume of 1 mL. Aliquots (100 HL) were quenched at intervals and were evaporated in a Savant Speed-vac as in Example 6. For TLC analysis, CH2Cl2/EtOH/H2O/HOAc 49:49:1:1 was used as the solvent. The plates were visualized with short-wave UV light and ninhydrin as in Example 6.
HPLC techniques were used to monitor the decarboxylation of substituted tryptophans. Mass spectral analysis of the collected HPLC peaks was used to confirm the identity of several tryptamine derivatives, as shown in Table 5.

[2] = biological target: T2, pig kidney aromatic amino acid decarboxylase (pkAAAD); test: Substrate screen for tryptophan decarboxylation, pkAAAD; assay type: biochemical; design: key: +: a clear ninhydrin-positive spot at the Rf of standard tryptophan derivatives after 16-65 h; (+): a weak spot in the product region; −: no product observed; NR: experiment not run; details: tryptophan derivative, PLP, pH 7.5, 37° C.
[3] = biological target: T3, E. coli DH5α tryptophan synthase (TrpBA) (Escherichia coli, UniProt P0A879); assay type: biochemical; design: key: +: a clear ninhydrin-positive spot at the Rf of standard tryptophan derivatives after 16-65 h; (+): a weak spot in the product region; −: no product observed; NR: experiment not run; details: indole derivative + L-serine + PLP, 37° C., 16-65 h, ninhydrin
T3 construct: made in house; host or cells: E. coli LMG194 (pBAD) or BL-21 (pET)
T3 sequence (P0A879 whole entry): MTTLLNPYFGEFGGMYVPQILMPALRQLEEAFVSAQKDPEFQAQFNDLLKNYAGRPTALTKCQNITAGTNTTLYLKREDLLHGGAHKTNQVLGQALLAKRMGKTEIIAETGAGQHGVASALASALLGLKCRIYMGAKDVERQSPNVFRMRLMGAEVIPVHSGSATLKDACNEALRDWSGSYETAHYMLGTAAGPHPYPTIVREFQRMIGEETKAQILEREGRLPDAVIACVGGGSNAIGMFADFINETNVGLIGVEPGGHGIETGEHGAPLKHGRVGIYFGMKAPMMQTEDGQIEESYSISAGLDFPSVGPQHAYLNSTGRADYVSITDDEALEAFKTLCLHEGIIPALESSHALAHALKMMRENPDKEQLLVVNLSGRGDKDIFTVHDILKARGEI
T3 sequence (P0A877 whole entry, further chain): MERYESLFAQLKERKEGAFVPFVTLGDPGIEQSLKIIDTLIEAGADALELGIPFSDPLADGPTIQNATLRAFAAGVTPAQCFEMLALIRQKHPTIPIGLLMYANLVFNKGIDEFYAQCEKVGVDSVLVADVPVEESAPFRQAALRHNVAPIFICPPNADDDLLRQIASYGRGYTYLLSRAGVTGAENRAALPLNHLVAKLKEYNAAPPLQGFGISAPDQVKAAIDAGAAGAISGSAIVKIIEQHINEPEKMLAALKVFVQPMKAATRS
Protocol: (§1) A mixture containing 2 μmole of the indole derivative, 0.05 μmole of PLP and 50 μmol of L-serine in 40 mM KPi buffer in 8% v/v ethanol water, pH 7.5, was warmed to 37° C., then enzyme solution was added to give a final volume of 1 mL. Aliquots (100 μL) were quenched at intervals of 2, 6, and 24 hours or more in microcentrifuge capsules containing 25 μL of 6 M HCl. The quenched samples were evaporated in a Savant Speed-vac. The residues were resuspended in methanol/water (1:1, 50 μL) and analyzed by TLC on Silica gel GF254 plates alongside tryptophan and tryptamine standards, eluting with CH2Cl2/EtOH/H2O/HOAc 77:20:2:1. Products were visualized first by using short-wave UV light, then with ninhydrin spray reagent (1/1/98 w/v/v ninhydrin/HOAc/EtOH) followed by heating.
(§2) Substituted indoles were incubated with L-serine, PLP and enzyme (TrpBA or TnA) prior to TLC analysis as generally described in Example 6. Serine, which can be used instead of pyruvate and ammonia for tryptophan synthesis with TnA, was employed as the 3-carbon acid because pyruvate tended to obscure the tryptophan product spots when plates were visualized with ninhydrin. TnA-catalyzed formation of tryptophan was also faster when serine was the 3-carbon donor. Reaction rates for several substrates were also estimated by HPLC.
(§3) In Table 4, “+” indicates a clear ninhydrin-positive spot at the Rf of standard tryptophan derivatives after 16-65 h; “(+)” indicates a weak spot in the product region; “−” means no product observed, “NR” means experiment not run. ESMS=electrospray mass spectrometry. Unless otherwise indicated, the mass value given represents the singly-protonated molecular ion (M+1).

tryptophanase (TnA) = biological target: T4, tryptophanase (TnA) (Escherichia coli, UniProt P0A853); assay type: biochemical, E. coli; design: key: +: a clear ninhydrin-positive spot at the Rf of standard tryptophan derivatives after 16-65 h; (+): a weak spot in the product region; −: no product observed; NR: experiment not run; details: indole derivative + L-serine + PLP, 37° C., 16-65 h, ninhydrin
T4 construct: made in house; host or cells: E. coli LMG194 (pBAD) or BL-21 (pET)
T4 sequence (P0A853 whole entry): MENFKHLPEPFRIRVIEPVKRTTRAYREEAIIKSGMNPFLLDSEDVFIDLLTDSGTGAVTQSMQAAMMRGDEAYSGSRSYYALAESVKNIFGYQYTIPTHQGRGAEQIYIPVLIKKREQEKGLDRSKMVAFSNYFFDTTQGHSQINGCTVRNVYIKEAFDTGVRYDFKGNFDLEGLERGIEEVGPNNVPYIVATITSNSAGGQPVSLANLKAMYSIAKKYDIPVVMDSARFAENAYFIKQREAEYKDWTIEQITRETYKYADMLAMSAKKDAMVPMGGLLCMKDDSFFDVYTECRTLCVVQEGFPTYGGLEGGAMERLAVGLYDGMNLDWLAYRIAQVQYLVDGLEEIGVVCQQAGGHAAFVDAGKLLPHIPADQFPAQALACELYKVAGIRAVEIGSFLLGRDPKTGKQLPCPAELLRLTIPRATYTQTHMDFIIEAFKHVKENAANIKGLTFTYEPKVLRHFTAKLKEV
Protocol: as §1, §2, §3

[4] = Decarboxylase activity of the enzyme preparations (Ehrlich's reagent); assay type: biochemical
Protocol: Tryptophan synthase activity was assayed by monitoring the increase in absorbance at 290 nm of a mixture containing serine, indole and PLP (Higgins, W., et al., Biochemistry, 1979, 18, 4827). TnA-catalyzed tryptophan synthesis was also measured by the 290 nm assay, while the tryptophan lyase reaction rate was measured by monitoring the reduction in NADH in reaction mixtures containing L-tryptophan and lactate dehydrogenase, indicating the amount of pyruvate released. Tryptophan decarboxylase was assayed colorimetrically by monitoring the sabsorbance at 580 nm produced by serotonin (AAADs) or tryptamine (TDCs) following treatment of reaction aliquots with Ehrlich's reagent (4-N,N-(dimethyl)aminobenzaldehyde in ethanolic HCl; Nakazawa, H.; Kumagi, H.; Yamada, H. Biochem Biophys. Res. Commun., 1974, 61, 75-82). Serotonin could be detected with approximately 5-fold higher sensitivity by this method as compared with tryptamine. The Ehrlich reagent assay using a microtiter plate format for simultaneous analysis of multiple enzyme samples may also be used. HPLC analysis was performed on acid-quenched reaction aliquots by using a base-deactivated C8 reversed-phase support (Shandon Hypersil BD8). HPLC analysis of acid-quenched aliquots permitted calculation of a rate ratio of 4.5 to 1 for pkAAAD-catalyzed DOPA decarboxylation relative to that of L-5-hydroxytryptophan, in good agreement with the accepted ratio of approximately 5:1. (See Sourkes, T. L. Methods Enzymol., 1987, 142, 170-178, which is incorporated herein by reference.)
A mixture (0.95 mL) containing L-5-hydroxytryptophan (2 mM), PLP (0.25 mM) and pH 7.5 KPi buffer (44 mM) was warmed to 37° C., then 50 μL of enzyme was added. Reaction aliquots were quenched in microcentrifuge capsules containing 50 μL each of 6M HCl to quench the enzyme reaction at 2, 5, and 20 min. Quenched aliquots were heated at 50° C. for 40 min with 750 μL each of Ehrlich's reagent (2:24:74 w/v/v […]: conc HCl: ethanol). Absorbance was read at 580-nm and compared with standards of serotonin (10-250 μM) or tryptamine (50 to 2000 μM).
Decarboxylase enzyme activity was determined using L-5-hydroxytryptophan as the substrate unless otherwise stated.

[5] = Table 2, L-5-hydroxytryptophan as substrate

| Molecule | TrpBA (tryptophan product spot, TLC analysis) [3] | TnA (tryptophan product spot, TLC analysis) (tryptophanase (TnA)) | further results |
| --- | --- | --- | --- |
| COc1ccc2[nH]cc(CC(N)C(=O)O)c2c1 (racemic) [DL-5-methoxy-trp] |  |  | SynAAAD (decarboxylation substrate screen) [1]: (+) |
| NC(Cc1c[nH]c2ncccc12)C(=O)O (racemic) [DL-7-aza-trp] |  |  | pkAAAD (decarboxylation substrate screen) [2]: −; SynAAAD (decarboxylation substrate screen) [1]: − |
| Cc1ccc2[nH]c(C)cc2c1 [2,5-dimethyl-] | + | − |  |
| Nc1cccc2[nH]ccc12 [4-amino-] | + | + |  |
| Oc1cccc2[nH]ccc12 [4-hydroxy] | + | + |  |
| O=[N+]([O-])c1cccc2[nH]ccc12 [4-nitro-] | − | − |  |
| Nc1ccc2[nH]ccc2c1 [5-amino-] | − | − |  |
| O=C(O)c1cc2cc(Br)ccc2[nH]1 [5-bromoindole-2-carboxylic acid] | − |  |  |
| Clc1ccc2[nH]ccc2c1 [5-chloro-] | + | + |  |
| N#Cc1ccc2[nH]ccc2c1 [5-cyano-] | − | − |  |
| Oc1ccc2[nH]ccc2c1 [5-hydroxy-] | + | + |  |
| COc1ccc2[nH]c(C)cc2c1 [5-methoxy-2-methyl-] | + | − |  |
| O=[N+]([O-])c1ccc2[nH]ccc2c1 [5-nitro-] | − | − |  |
| Clc1ccc2cc[nH]c2c1 [6-chloroindole] | − | + |  |
| Fc1ccc2cc[nH]c2c1 [6-fluoroindole] | + | (+) |  |
| COc1ccc2cc[nH]c2c1 [6-methoxyindole] | + | (+) |  |
| Clc1cccc2cc[nH]c12 [7-chloro] | + | − |  |
| O=C(O)c1ccc2[nH]ccc2c1 [Indole-5-carboxylic acid] | − | − |  |
| N[C@@H](Cc1c[nH]c2ccc(CO)cc12)C(=O)O [L-5-(hydroxymethyl)-trp] |  |  | SynAAAD (decarboxylation substrate screen) [1]: − |
| indoxyl acetate [4-acetoxy-[indoxyl acetate]] | + | + |  |
| B1 |  |  | Crude specific activity [4, 5]: 0.18 units/mg; Purified specific activity [4, 5]: 0.3 Units/mg; Crude specific activity ([4]; Table 3, decarboxylases): 0.18 units/mg; specific activity in crude extracts ([4]; crude extracts): 0.1-0.2 units/mg |
| B2 |  |  | Crude specific activity [4, 5]: 0.05 units/mg; Purified specific activity [4, 5]: 0.2 Units/mg; Crude specific activity ([4]; Table 3, decarboxylases): 0.05 units/mg |
